Assay results as given in patent US20090099094A1, “Use of Somatostatin Agonists to Treat Medullary Thyroid Carcinoma” (priority 2007, published 2009).
One block for each compound: values may come before it. Square brackets hold non-standard residues; d marks the D form. Peptide text beside a SMILES is read from it. Tic = O=C(O)[C@@H]1Cc2ccccc2CN1; Abu = CC[C@H](N)C(=O)O

How the values were obtained:
[1] = target: SSTR2 (Homo sapiens, UniProt P30874); assay: SSTR receptor binding affinity (Ki), SSTR2; conditions: read-out: SSTR Specificity Ki SSTR2
Sequence of SSTR2 (P30874 whole entry): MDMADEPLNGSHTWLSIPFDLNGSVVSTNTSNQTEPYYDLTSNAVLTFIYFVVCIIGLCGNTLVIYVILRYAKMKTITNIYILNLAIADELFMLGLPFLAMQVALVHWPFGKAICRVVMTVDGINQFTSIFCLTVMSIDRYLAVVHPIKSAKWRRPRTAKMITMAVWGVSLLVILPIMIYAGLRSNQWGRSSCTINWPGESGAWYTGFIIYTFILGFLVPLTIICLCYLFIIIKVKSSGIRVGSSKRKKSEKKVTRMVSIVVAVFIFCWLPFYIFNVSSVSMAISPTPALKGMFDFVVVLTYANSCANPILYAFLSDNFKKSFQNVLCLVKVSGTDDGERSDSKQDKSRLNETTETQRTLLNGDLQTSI

[2] = test system: medullary thyroid carcinoma primary cultures; assay: Cell viability of MTC primary cultures (MTT); assay type: cell-based, human; conditions: 10^−8 M, forty-eight hours; for cell viability, change vs. control (signed, negative = reduced): group B (lanreotide non-responsive) mean
Description: Primary cultured cells from 18 selected MTC samples were incubated in ninety six well plates for forty eight hours with each SSTR agonist at 10^−8 M. Control cells were treated with vehicle solution. Cell viability was measured by a colorimetric method among eight replicates from treated and untreated (control) primary cultured cells. […] Data are expressed as the mean±SE percent cell viability reduction vs. untreated control cells. *P<0.05, and **P<0.01 vs. control.
(§1) Tissue samples were surgically removed in accordance with the guidelines of the local comnmittees on human research. Thyroid tissue samples were obtained under sterile conditions and immediately minced in RPMI 1640 tissue culture medium. Tissues were incubated with 0.25% trypsin overnight at 4° C. and then dissociated using 0.35% collagenase (Sigma, Milano, ITALY) and 1% trypsin at 37° C. for sixty minutes. Cell suspensions were filtered through double layers of gaus(e and washed twice with serum-free F-12 Ham's Nutrient Modified Medium (F-12; Euroclone Ltd, Wetherby, UNITED KINGDOM). Tumor cells were re-suspended in F-12 with 10% fetal bovine serum and antibiotics, seeded in ninety-six well culture plates (˜2×10^4 cells/well) and incubated at 37° C. in a humidified atmosphere of 5% CO2 and 95% air according to known procedures (Zatelli, M. C. et al., Endocrinology, 2005, 146:2692-8). Approximately twenty-four hours later, the prepared cells were treated with the selected somatostatin agonist and were monitored for hormone secretion and overall viability. Informed consent of the patients was obtained for disclosing clinical investigation and performing the in vitro study.
The effects of the tested somatostatin analogs on medullary thyroid carcinoma primary culture cell viability were assessed with a Cell Proliferation Kit I MTT® (Roche Diagnostics GmbH, Mannheim, GERMANY) which employs a colorimetric method for determining the number of viable cells in proliferation assays. Primary cultured cells were plated in ninety-six multiwell plates (2×10^4 cells/well) and incubated for forty-eight hours in a medium supplemented with 10% fetal bovine serum in the presence or absence of each somatostatin analog at 10^−8M. Treatments were renewed after the first twenty-four hours of incubation.
In order to investigate the effects of somatostatin analogs on medullary thyroid carcinoma cell viability, an MTT assay was performed in primary cultures derived from the eighteen selected medullary thyroid carcinoma samples, treated with or without each somatostatin analog at […] for forty-eight hours. Percent cell viability reduction compared to a control in each primary culture under treatment with each somatostatin analog is reported in Table 6.

[3] = target: SSTR1 (Homo sapiens, UniProt P30872); assay: SSTR receptor binding affinity (Ki), SSTR1; conditions: read-out: SSTR Specificity Ki SSTR1
Sequence of SSTR1 (P30872 whole entry): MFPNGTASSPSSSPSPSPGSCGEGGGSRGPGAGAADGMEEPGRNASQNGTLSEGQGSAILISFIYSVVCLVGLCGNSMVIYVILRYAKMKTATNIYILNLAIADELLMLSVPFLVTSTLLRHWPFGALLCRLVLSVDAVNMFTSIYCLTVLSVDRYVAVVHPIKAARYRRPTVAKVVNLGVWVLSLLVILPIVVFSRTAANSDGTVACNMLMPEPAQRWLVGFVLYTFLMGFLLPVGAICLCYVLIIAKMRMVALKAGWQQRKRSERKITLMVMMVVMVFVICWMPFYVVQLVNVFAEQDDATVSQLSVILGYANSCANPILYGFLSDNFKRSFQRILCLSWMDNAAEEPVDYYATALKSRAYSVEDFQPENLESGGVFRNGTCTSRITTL

[4] = test system: medullary thyroid carcinoma primary cultures; assay: Calcitonin secretion by MTC primary cultures (IRMA); assay type: cell-based, human; conditions: 10^−8 M, six hours
Description: Primary cultured cells from 18 selected MTC samples were incubated in ninety six well plates for six hours with each SSTR agonist at 10^−8 M. Control cells were treated with vehicle solution. Calcitonin levels in the conditioned medium were measured by immunoradiometric assay (IRMA) among eight replicates in the conditioned medium from treated and untreated (control) primary cultured cells. […] Data are expressed as the mean±SE percent hormone secretion inhibition vs. untreated control cells. *P<0.05 and **P<0.01 vs. control.
as §1
Calcitonin levels were measured in a conditioned medium from treated and untreated primary cultured cells with the calcitonin-U.S.-IRMA® kit (Biosource Europe, Nivelles, BELGIUM) after a six hour treatment with […] of the selected somatostatin analogs. The intra- and inter-assay variation coefficients were 1.9-2.7% and 1.9-3.3%, respectively. The detection limit was 0.8 pg/ml. Hormone assays were performed in duplicate of conditioned medium from treated cells. Results were obtained by determining the mean value among eight replicates.
In order to investigate the effects of somatostatin analogs on hormone secretion, calcitonin and CgA levels were measured in conditioned media collected from primary cultures derived from the selected eighteen medullary thyroid carcinoma treated with or without each somatostatin analog at 10^−8M for six hours.
According to this criterion, […] as “responders” (group A: primary cultures #3, #5, #6, #7, #11, #12, #13, #14, #15, #16) and nine as “non responders” (group B: primary cultures #1, #2, #4, #8, #9, #10, #17, #18).

[5] = target: SSTR4 (Homo sapiens, UniProt P31391); assay: SSTR receptor binding affinity (Ki), SSTR4; conditions: read-out: SSTR Specificity Ki SSTR4
Sequence of SSTR4 (P31391 whole entry): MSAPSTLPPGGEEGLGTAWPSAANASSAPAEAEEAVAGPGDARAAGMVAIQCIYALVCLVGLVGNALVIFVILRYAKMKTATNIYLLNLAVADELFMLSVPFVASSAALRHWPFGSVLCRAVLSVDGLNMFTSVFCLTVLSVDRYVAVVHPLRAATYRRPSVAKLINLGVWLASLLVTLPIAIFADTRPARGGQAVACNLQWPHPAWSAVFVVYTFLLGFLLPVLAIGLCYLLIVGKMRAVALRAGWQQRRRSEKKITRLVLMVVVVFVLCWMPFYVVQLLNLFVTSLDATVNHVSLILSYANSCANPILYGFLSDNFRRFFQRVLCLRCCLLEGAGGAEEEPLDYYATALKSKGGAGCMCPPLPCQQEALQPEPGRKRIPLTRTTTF

[6] = target: SSTR3 (Homo sapiens, UniProt P32745); assay: SSTR receptor binding affinity (Ki), SSTR3; conditions: read-out: SSTR Specificity Ki SSTR3
Sequence of SSTR3 (P32745 whole entry): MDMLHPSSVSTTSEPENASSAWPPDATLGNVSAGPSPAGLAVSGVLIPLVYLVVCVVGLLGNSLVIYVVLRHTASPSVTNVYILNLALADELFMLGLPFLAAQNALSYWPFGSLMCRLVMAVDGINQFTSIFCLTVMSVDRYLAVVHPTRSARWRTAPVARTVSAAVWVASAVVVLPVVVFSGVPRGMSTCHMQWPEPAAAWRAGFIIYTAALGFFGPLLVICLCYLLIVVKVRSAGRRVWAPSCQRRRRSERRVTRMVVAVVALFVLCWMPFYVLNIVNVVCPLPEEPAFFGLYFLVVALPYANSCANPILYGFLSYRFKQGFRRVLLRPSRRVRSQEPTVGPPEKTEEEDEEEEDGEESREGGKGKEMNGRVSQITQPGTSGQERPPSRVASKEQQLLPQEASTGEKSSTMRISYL

[7] = target: SSTR5 (Homo sapiens, UniProt P35346); assay: SSTR receptor binding affinity (Ki), SSTR5; conditions: read-out: SSTR Specificity Ki SSTR5
Sequence of SSTR5 (P35346 whole entry): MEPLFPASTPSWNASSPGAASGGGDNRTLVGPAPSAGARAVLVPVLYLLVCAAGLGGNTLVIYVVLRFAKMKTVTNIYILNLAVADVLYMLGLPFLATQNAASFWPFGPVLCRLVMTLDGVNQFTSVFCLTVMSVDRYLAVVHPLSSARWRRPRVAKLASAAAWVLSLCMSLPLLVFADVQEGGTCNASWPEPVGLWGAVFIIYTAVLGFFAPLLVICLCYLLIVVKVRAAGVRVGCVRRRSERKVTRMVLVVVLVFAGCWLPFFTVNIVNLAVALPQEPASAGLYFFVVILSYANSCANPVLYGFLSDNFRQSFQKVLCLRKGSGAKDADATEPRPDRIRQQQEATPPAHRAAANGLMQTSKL

[8] = MTC primary culture #1 (non responder)
[9] = MTC primary culture #2 (non responder)
[10] = MTC primary culture #3 (responder)
[11] = MTC primary culture #4 (non responder)
[12] = MTC primary culture #5 (responder)
[13] = MTC primary culture #6 (responder)
[14] = MTC primary culture #7 (responder)
[15] = MTC primary culture #8 (non responder)
[16] = MTC primary culture #9 (non responder)
[17] = MTC primary culture #10 (non responder)
[18] = MTC primary culture #11 (responder)
[19] = MTC primary culture #12 (responder)
[20] = MTC primary culture #13 (responder)
[21] = MTC primary culture #14 (responder)
[22] = MTC primary culture #15 (responder)
[23] = MTC primary culture #16 (responder)
[24] = MTC primary culture #17 (non responder)
[25] = MTC primary culture #18 (non responder)
[26] = group A (lanreotide responsive) mean
[27] = group B (lanreotide non-responsive) mean

Ki [1]: 0.34 nM
Ki [3]: 1000 nM
Ki [5]: 1000 nM
Ki [6]: 412 nM
Ki [7]: 214 nM
SMILES: CC[C@@H]1NC(=O)[C@H](CCCCN)NC(=O)[C@@H](Cc2c[nH]c3ccccc23)NC(=O)[C@H](Cc2ccc(O)cc2)NC(=O)[C@@H]2Cc3ccccc3CN2C(=O)[C@H](Cc2ccccc2)NC1=O [Cmpd #2, c[Tic-Tyr-D-Trp-Lys-Abu-Phe]] (cyclo([Tic]Y[dW]K[Abu]F))
% cell viability reduction vs. control [2, 8]: −5.0%
% cell viability reduction vs. control [2, 9]: −56.4%
% cell viability reduction vs. control [2, 10]: −3.2%
% cell viability reduction vs. control [2, 11]: −17.9%
% cell viability reduction vs. control [2, 12]: −8.6%
% cell viability reduction vs. control [2, 13]: 3.2%
% cell viability reduction vs. control [2, 14]: 54.4%
% cell viability reduction vs. control [2, 15]: −15.3%
% cell viability reduction vs. control [2, 16]: −8.8%
% cell viability reduction vs. control [2, 17]: 12.1%
% cell viability reduction vs. control [2, 18]: −0.4%
% cell viability reduction vs. control [2, 19]: 15.8%
% cell viability reduction vs. control [2, 20]: −5.3%
% cell viability reduction vs. control [2, 21]: 8.2%
% cell viability reduction vs. control [2, 22]: 5.6%
% cell viability reduction vs. control [2, 23]: −3.0%
% cell viability reduction vs. control [2, 24]: −10.3%
% cell viability reduction vs. control [2, 25]: −20.6%
cell viability, change vs. control (signed, negative = reduced) [2]: −13%
% CT secretion inhibition vs. control [4, 8]: −6.1%
% CT secretion inhibition vs. control [4, 9]: −4.3%
% CT secretion inhibition vs. control [4, 10]: −36.0%
% CT secretion inhibition vs. control [4, 11]: 8.9%
% CT secretion inhibition vs. control [4, 12]: −8.6%
% CT secretion inhibition vs. control [4, 13]: −5.7%
% CT secretion inhibition vs. control [4, 14]: −51.3%
% CT secretion inhibition vs. control [4, 15]: −2.6%
% CT secretion inhibition vs. control [4, 16]: 6.7%
% CT secretion inhibition vs. control [4, 17]: 11.6%
% CT secretion inhibition vs. control [4, 18]: 10.3%
% CT secretion inhibition vs. control [4, 19]: −12.4%
% CT secretion inhibition vs. control [4, 20]: −48.6%
% CT secretion inhibition vs. control [4, 21]: 1.6%
% CT secretion inhibition vs. control [4, 22]: −22.9%
% CT secretion inhibition vs. control [4, 23]: −31.7%
% CT secretion inhibition vs. control [4, 24]: −2.6%
% CT secretion inhibition vs. control [4, 25]: −1.5%
calcitonin secretion, change vs. control (signed, negative = reduced) [4, 26]: −23%
calcitonin secretion, change vs. control (signed, negative = reduced) [4, 27]: not reduced

Ki [1]: 166 nM
Ki [3]: 1150 nM
Ki [6]: 1000 nM
Ki [7]: 2.4 nM
SMILES: C[C@@H](O)[C@H](NC(=O)[C@H](Cc1ccccc1)NC(=O)[C@@H](NC(=O)[C@H](CCCCN)NC(=O)[C@@H](Cc1c[nH]c2ccccc12)NC(=O)[C@H](Cc1c[nH]c2ccccc12)NC(=O)[C@H](Cc1ccccc1)NC(=O)[C@H](N)Cc1ccccc1)[C@@H](C)O)C(N)=O [Cmpd #3, D-Phe-Phe-Trp-D-Trp-Lys-Thr-Phe-Thr-NH2]
% cell viability reduction vs. control [2, 8]: 30.8%
% cell viability reduction vs. control [2, 9]: −72.5%
% cell viability reduction vs. control [2, 10]: 0.4%
% cell viability reduction vs. control [2, 11]: 4.8%
% cell viability reduction vs. control [2, 12]: −5.3%
% cell viability reduction vs. control [2, 13]: 2.4%
% cell viability reduction vs. control [2, 14]: 4.2%
% cell viability reduction vs. control [2, 15]: −0.3%
% cell viability reduction vs. control [2, 16]: 3.6%
% cell viability reduction vs. control [2, 17]: 2.3%
% cell viability reduction vs. control [2, 18]: −1.0%
% cell viability reduction vs. control [2, 19]: −11.3%
% cell viability reduction vs. control [2, 20]: 7.2%
% cell viability reduction vs. control [2, 21]: 6.0%
% cell viability reduction vs. control [2, 22]: 5.2%
% cell viability reduction vs. control [2, 23]: −5.8%
% cell viability reduction vs. control [2, 24]: −8.7%
% cell viability reduction vs. control [2, 25]: −3.8%
cell viability, change vs. control (signed, negative = reduced) [2]: neither affected
% CT secretion inhibition vs. control [4, 8]: −16.6%
% CT secretion inhibition vs. control [4, 9]: 18.2%
% CT secretion inhibition vs. control [4, 10]: −36.5%
% CT secretion inhibition vs. control [4, 11]: 5.3%
% CT secretion inhibition vs. control [4, 12]: −17.5%
% CT secretion inhibition vs. control [4, 13]: −25.8%
% CT secretion inhibition vs. control [4, 14]: −34.6%
% CT secretion inhibition vs. control [4, 15]: −7.5%
% CT secretion inhibition vs. control [4, 16]: −1.6%
% CT secretion inhibition vs. control [4, 17]: 15.6%
% CT secretion inhibition vs. control [4, 18]: −76.2%
% CT secretion inhibition vs. control [4, 19]: −9.3%
% CT secretion inhibition vs. control [4, 20]: −43.2%
% CT secretion inhibition vs. control [4, 21]: 9.5%
% CT secretion inhibition vs. control [4, 22]: 7.8%
% CT secretion inhibition vs. control [4, 23]: −17.4%
% CT secretion inhibition vs. control [4, 24]: 7.4%
% CT secretion inhibition vs. control [4, 25]: 13.6%
calcitonin secretion reduced / inhibited by ([4]; group A (lanreotide responders) mean): 28%
calcitonin secretion, change vs. control (signed, negative = reduced) [4, 26]: −28%
calcitonin secretion, change vs. control (signed, negative = reduced) [4, 27]: not reduced
